Source: patent US10357036B2, “Compounds for controlling arthropods” (priority 2015, dated 2019)
Where two headings read alike, the source gives them in different places.

Experiments:
Myzus persicae = Myzus persicae spray test (Chinese cabbage leaf discs); format: in vivo; conditions: 100 g/ha; after 6 days
Experimental: (§1) After 6 days, the efficacy in % is determined.

Phaedon cochleariae = Phaedon cochleariae spray test; conditions: for efficacy: 100 g/ha, after 7 days; for pest or weed control at 100 g/ha: Phaedon cochleariae, 168 h, read-out: efficacy
Tetranychus urticae [1] = assay: Tetranychus urticae spray test, OP-resistant (bean leaf discs); format: in vivo; conditions: 100 g/ha; after 6 days
Experimental: as §1

Spodoptera frugiperda = Spodoptera frugiperda spray test; format: in vivo; conditions: 100 g/ha, after 7 days; for pest or weed control at 100 g/ha: Spodoptera frugiperda, 168 h, read-out: efficacy
Meloidogyne incognita = Meloidogyne incognita test; format: in vivo; conditions: 20 ppm; after 14 days
Experimental: • Solvent: 125.0 parts by weight of acetone
To produce a suitable active compound preparation, 1 part by weight of active compound is mixed with the stated amount of solvent and the concentrate is diluted to the desired concentration with water.
Vessels are filled with sand, active compound solution, an egg/larvae suspension of the southern root-knot nematode (Meloidogyne incognita) and lettuce seeds. The lettuce seeds germinate and the plants develop. The galls develop on the roots.
After 14 days, the nematicidal efficacy in % is determined by the formation of galls. 100% means that no galls were found; 0% means that the number of galls on the treated plants corresponds to the untreated control.

Boophilus microplus = Boophilus microplus injection test; format: in vivo; conditions: 20 μg/animal; assessed after 7 days
Experimental: (§2) • Solvent: dimethyl sulfoxide
1 μl of the active ingredient solution is injected into the abdomen of 5 engorged adult female cattle ticks (Boophilus microplus). The animals are transferred into dishes and kept in a climate-controlled room.

Ctenocephalides felis [2] = assay: Ctenocephalides felis oral test; format: in vivo; conditions: 100 ppm in citrated cattle blood; after 2 days
Rhipicephalus sanguineus = Rhipicephalus sanguineus in vitro contact test with adult brown dog ticks; format: in vivo; conditions: application rate 5 μg/cm^2 (=500 g/ha); after 48 h; dead or moribund ticks
Method in brief: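 Adult Rhipicephalus sanguineus (5-10 per tube) held in glass tubes coated with compound from acetone solution, 900 ppm giving 5 μg/cm^2, in the dark at room temperature. After 48 h ticks put on a 45-50° C hotplate up to 5 min; motionless or uncoordinated ticks scored dead/moribund as % efficacy.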

Musca domestica = Musca domestica test; format: in vivo; conditions: 100 ppm; adult houseflies; after 2 days
Experimental: as §2
To produce a suitable active ingredient formulation, 10 mg of active ingredient are mixed with 0.5 ml of dimethyl sulfoxide, and the concentrate is diluted with water to the desired concentration.
Vessels containing a sponge treated with sugar solution and the active ingredient formulation of the desired concentration are populated with 10 adult houseflies (Musca domestica).

Ctenocephalides felis [3] = assay: Ctenocephalides felis in vitro contact test with adult cat fleas; format: in vivo; conditions: application rate 5 μg/cm^2 (=500 g/ha); after 48 h; dead or moribund fleas
Method in brief: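 Glass tubes were coated with compound in acetone (900 ppm solution gives 5 μg/cm²), dried, then loaded with 5–10 adult cat fleas. Held horizontal at room temperature and ambient humidity for 48 h. Efficacy is the % of fleas dead or moribund (motionless or uncoordinated after knock-down).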

[4] = tested on: cattle ticks (Boophilus microplus) Parkhurst strain, SP-resistant; assay: Boophilus microplus dip test; format: in vivo; conditions: 100 ppm; assessed after 7 days
Experimental: • Test animals: cattle ticks (Boophilus microplus) Parkhurst strain, SP-resistant • Solvent: dimethyl sulfoxide
10 mg of active ingredient are dissolved in 0.5 ml of dimethyl sulfoxide. To produce a suitable formulation, the active ingredient solution is diluted with water to the concentration desired in each case.
This active ingredient formulation is pipetted into tubes. 8-10 engorged adult female cattle ticks (Boophilus microplus) are transferred into a further tube with holes. The tube is immersed into the active ingredient formulation, and all the ticks are completely wetted. After the liquid has run out, the ticks are transferred on filter discs into plastic dishes and stored in a climate-controlled room.
Efficacy is assessed after 7 days by laying of fertile eggs. Eggs which are not visibly fertile are stored in a climate-controlled cabinet until the larvae hatch after about 42 days. An efficacy of 100% means that none of the ticks has laid any fertile eggs; 0% means that all the eggs are fertile.

Tetranychus urticae [5] = assay: Tetranychus urticae spray test, OP-resistant (bean plants); format: in vivo; conditions: 4 ppm; after 7 days
Experimental: To produce further test concentrations, the latter is diluted with emulsifier-containing water. When addition of ammonium salts and/or penetrants is required, these are each added at a concentration of 1000 ppm to the preparation solution.
Bean plants (Phaseolus vulgaris), which are heavily infested by all stages of the greenhouse red spider mite (Tetranychus urticae), are treated by being sprayed with the active compound preparation at the desired concentration.

[6] = reversed-phase C18 HPLC column, logP, HPLC, C18, acetonitrile/water with formic acid (note a)
[7] = reversed-phase C18 HPLC column, logP^a, HPLC-MS method a)

Structure (SMILES) | efficacy (Myzus persicae) [%] | efficacy (Phaedon cochleariae) [%] | efficacy (Tetranychus urticae [1]) [%] | efficacy (Spodoptera frugiperda) [%] | nematicidal efficacy (formation of galls) (Meloidogyne incognita) [%] | chromatographic logP [6] | pest or weed control at 100 g/ha (Phaedon cochleariae) [%] | pest or weed control at 100 g/ha (Spodoptera frugiperda) [%] | chromatographic logP [7] | efficacy (laying of fertile eggs) (Boophilus microplus) [%] | efficacy (rate of extermination) (Ctenocephalides felis [2]) [%] | efficacy (Rhipicephalus sanguineus) [%] | efficacy (rate of extermination) (Musca domestica) [%] | efficacy (Ctenocephalides felis [3]) [%] | efficacy (laying of fertile eggs) [4] [%] | efficacy (Tetranychus urticae [5]) [%] | chromatographic logP (reversed-phase C18 HPLC column, logP^a, HPLC-MS method a), reversed-phase column (C18))
CC(=O)NCc1cc(-c2cnn(-c3c(Cl)cc(C(F)(C(F)(F)F)C(F)(F)F)cc3C(F)F)c2)ccc1F [Ia-34] | 90 | 100 | 100 | 100 | 100 |  |  |  |  |  |  |  |  |  |  |  | 
CC(=O)NCc1cc(-c2cn(-c3c(Cl)cc(C(F)(C(F)(F)F)C(F)(F)F)cc3Cl)nn2)ccc1Cl [I-T7-01, N-(2-chloro-5-{1-[2,6-dichloro-4-(1,1,1,2,3,3,3-heptafluoropropan-2-yl)phenyl]-1H-1,2,3-triazol-4-yl}benzyl)acetamide] |  |  | 90 |  |  | 3.94 | 100 | 100 |  |  |  |  |  |  |  |  | 
O=C(NCc1cc(-c2cnn(-c3c(Cl)cc(C(F)(C(F)(F)F)C(F)(F)F)cc3Cl)c2)ccc1Cl)C1CC1 [Ia-25, N-(2-chloro-5-{1-[2,6-dichloro-4-(1,1,1,2,3,3,3-heptafluoropropan-2-yl)phenyl]-1H-pyrazol-4-yl}benzyl)cyclopropanecarboxamide] |  |  |  |  |  | 4.8 |  | 100 | 4.8 | 100 | 100 | 80 | 100 | 100 |  |  | 
CC(=O)N(C)Cc1cccc(-c2cnn(-c3c(Cl)cc(C(F)(C(F)(F)F)C(F)(F)F)cc3Cl)c2)c1 [Ia-42] |  | 100 | 100 |  | 90 |  |  |  |  | 100 | 100 |  | 80 |  |  |  | 
CCC(=O)NCc1cc(-c2cnn(-c3c(Cl)cc(C(F)(C(F)(F)F)C(F)(F)F)cc3SC)c2)ccc1F [Ia-10, N-(5-{1-[2-chloro-4-(1,1,1,2,3,3,3-heptafluoropropan-2-yl)-6-(methylsulfanyl)phenyl]-1H-pyrazol-4-yl}-2-fluorobenzyl)propanamide] |  |  | 100 |  |  | 4.29 | 100 | 100 | 4.29 | 100 | 100 | 100 | 100 | 100 |  |  | 
CCS(=O)(=O)N(C)Cc1cc(-c2cnn(-c3c(Cl)cc(C(F)(C(F)(F)F)C(F)(F)F)cc3Cl)c2)ccc1Cl [Ic-03, N-(2-chloro-5-{1-[2,6-dichloro-4-(1,1,1,2,3,3,3-heptafluoropropan-2-yl)phenyl]-1H-pyrazol-4-yl}benzyl)-N-methylethanesulfonamide] |  |  |  |  |  | 5.21 | 100 | 100 |  |  |  |  |  |  |  |  | 
CC(=O)NCc1cc(-c2cnn(-c3c(Cl)cc(C(F)(C(F)(F)F)C(F)(F)F)cc3C#N)c2)ccc1F [Ia-105] | 90 | 100 | 100 | 100 | 90 |  |  |  |  |  |  |  |  |  |  |  | 
CC(=O)NCc1cc(-c2cnn(-c3c(Cl)cc(C(F)(C(F)(F)F)C(F)(F)F)cc3Cl)c2)ccc1F [Ia-15] | 90 | 100 | 100 | 100 | 90 |  |  |  |  | 100 | 100 | 100 | 100 | 100 | 90 |  | 
CCC(=O)NC1CCc2ccc(-c3cnn(-c4c(Cl)cc(C(F)(C(F)(F)F)C(F)(F)F)cc4OC(F)(F)F)c3)cc21 (stereo not drawn) [I-Tc-01, N-(6-{1-[2-chloro-4-(1,1,1,2,3,3,3-heptafluoropropan-2-yl)-6-(trifluoromethoxy)phenyl]-1H-pyrazol-4-yl}-2,3-dihydro-1H-inden-1-yl)propanamide] |  |  |  |  |  | 4.84 |  | 100 |  | 100 | 100 | 100 |  |  |  |  | 
CC(=O)NCc1cc(-c2cnn(-c3c(Cl)cc(C(F)(C(F)(F)F)C(F)(F)F)cc3OC(F)(F)F)c2)ccc1Cl [Ia-57] |  | 100 |  | 100 |  |  |  |  |  | 100 | 100 | 80 | 100 |  |  | 99 | 
N#CCC(=O)NCc1cc(-c2cnn(-c3c(Cl)cc(C(F)(C(F)(F)F)C(F)(F)F)cc3Br)c2)ccc1Cl [Ia-137, N-(5-{1-[2-bromo-6-chloro-4-(1,1,1,2,3,3,3-heptafluoropropan-2-yl)phenyl]-1H-pyrazol-4-yl}-2-chlorobenzyl)-2-cyanoacetamide] |  |  | 100 |  |  | 4.28 | 100 | 100 |  | 100 | 100 |  | 100 | 100 |  |  | 4.33
CCC(=O)NCc1c(F)ccc(-c2cnn(-c3c(Cl)cc(C(F)(C(F)(F)F)C(F)(F)F)cc3C(F)F)c2)c1F [Ia-141] |  | 100 | 100 | 100 | 90 |  |  |  |  | 100 | 100 | 100 | 100 |  |  |  | 
CCC(=O)NCc1cccc(-c2cnn(-c3c(Cl)cc(C(F)(C(F)(F)F)C(F)(F)F)cc3Cl)c2)c1 [Ia-08] |  | 100 | 90 | 100 | 100 |  |  |  |  | 100 | 100 | 80 | 80 | 100 |  |  | 
CC(=O)NCc1cc(-c2cnn(-c3c(Cl)cc(C(F)(C(F)(F)F)C(F)(F)F)cc3C(F)(F)F)c2)ccc1Cl [Ia-55] |  | 100 |  | 100 |  |  |  |  |  | 100 | 100 | 100 | 100 | 70 |  | 99 | 
CC(=O)NCc1cccc(-c2cnn(-c3c(Cl)cc(C(F)(C(F)(F)F)C(F)(F)F)cc3C#N)c2)c1 [Ia-102] |  | 100 | 90 |  | 100 |  |  |  |  |  |  |  |  |  |  |  | 
CCC(=O)NCc1cc(-c2cnn(-c3c(Cl)cc(C(F)(C(F)(F)F)C(F)(F)F)cc3S(C)(=O)=O)c2)ccc1F [Ia-46, N-(5-{1-[2-chloro-4-(1,1,1,2,3,3,3-heptafluoropropan-2-yl)-6-(methylsulfonyl)phenyl]-1H-pyrazol-4-yl}-2-fluorobenzyl)propanamide] |  |  | 70 |  |  | 3.65 |  |  | 3.65 |  |  |  |  |  |  |  | 
CC(=O)N(C)Cc1cc(-c2cnn(-c3c(Cl)cc(C4(C(F)(F)F)CC4)cc3Cl)c2)ccc1F [Ia-125] |  |  |  |  | 100 |  |  |  |  |  |  |  |  |  |  |  | 
